According to publication PMC3397464, “Woodylides A–C, New Cytotoxic Linear Polyketides from the South China Sea Sponge Plakortis simplex” (Marine Drugs, 2012):
≈ marks a conversion by molar mass, not a printed value.

Legend:
[1] = Cytotoxicity MTT assay; assay type: cell-based; conditions: human, 48 h treatment, 1 to 100 μg/mL
Experimental: (§1) Cytotoxicity of compound 3 against A549, HeLa, QGY-7703, and MDA231 cell lines was weaker when compared to that of 1. […] The PTP1B inhibitors are recognized as potential therapeutic agents for the treatment of type II diabetes and obesity. The cytotoxicity of compounds 1-3 against HCT-116, A549, HeLa, QGY-7703, and MDA231 cell lines was evaluated by the MTT assay as described in a previous report. Briefly, compounds were solubilized in DMSO with the working concentration of test substances ranging from 1 to 100 μg/mL. Cells at the exponential growth phase were harvested and seeded into 96-well plates. After incubation for 24 h, the cells were treated with various concentrations of test substances for 48 h and then incubated with 1 mg/mL MTT at 37 °C for 4 h, followed by dissolving in DMSO. The produced formazan was measured by the absorbance at 570 nm on a microplate reader. The IC50 values were calculated on the basis of percentage inhibition using the linear regression method.

[2] = system: Microsporum gypseum (Cmccfmza); experiment: Antifungal evaluation, MIC (NCCLS broth dilution); assay type: cell-based; conditions: Nannizzia gypsea, 4–7 days at 30 °C, range 1.25–640 μg/mL
Experimental: (§2) The three new polyketides 1–3 were evaluated for antifungal activity against Cryptococcus neoformans (ATCC 90113), Candida albicans (Y0109), Trichophyton rubrum (Cmccftla) and Microsporum gypseum (Cmccfmza) (Table 2), for in vitro cytotoxic activity against human cancer cell lines, HCT-116 (colon cancer), A549 (lung carcinoma), HeLa (cervical cancer), QGY-7703 (hepatocarcinoma), and MDA231 (breast adenocarcinoma) (Table 3), and protein tyrosine phosphatase 1B (PTP1B) inhibitory activity (Table 3). […] Cytotoxicity of compound 3 against A549, HeLa, QGY-7703, and MDA231 cell lines was weaker when compared to that of 1. […] The PTP1B inhibitors are recognized as potential therapeutic agents for the treatment of type II diabetes and obesity.
(§3) Antifungal IC50 values of woodylides A–C against C. neoformans were calculated as described by Ikhlas A. Khan et al.. Amphotericin B was used as the positive control. Minimal Inhibition Concentration (MIC) values of woodylides A–C were determined against three indicators (C. albicans, T. rubrum, and M. gypseum), following the […] (NCCLS) methods. Fluconazole was used as the positive control. Briefly, samples (dissolved in DMSO) were serially diluted in 20% DMSO/saline and transferred (10 µL) in duplicate to 96 well flat bottom microplates. Bacterial strains were grown aerobically at 30 °C in SDA for 16–20 h. A set of different concentrations of compounds 1–3 prepared in RPMI 1640 were next inoculated with the microorganisms and incubated 70–74 h for C. neoformans at 35 °C, 46 h for C. albicans at 35 °C, and 4–7 days for T. rubrum and M. gypseum at 30 °C. The IC50 values were calculated by using the fit model 201 of XLfit 4.2 software.

[3] = system: Trichophyton rubrum (Cmccftla); experiment: Antifungal evaluation, MIC (NCCLS broth dilution); assay type: cell-based; conditions: 4–7 days at 30 °C, range 1.25–640 μg/mL, read-out: Antifungal Activity T. rubrum, MIC
Experimental: as §2, §3

[4] = target: T1, protein tyrosine phosphatase 1B (PTP1B) (Homo sapiens, UniProt P18031); experiment: PTP1B inhibitory assay (pNPP hydrolysis); assay type: biochemical; conditions: recombinant PTP1B catalytic domain, 30 °C, pH 6.5
T1 construct: The enzymatic activities of the PTP1B catalytic domain were determined at 30 °C by monitoring the hydrolysis of pNPP
T1 sequence (P18031 3-277 limits assumed): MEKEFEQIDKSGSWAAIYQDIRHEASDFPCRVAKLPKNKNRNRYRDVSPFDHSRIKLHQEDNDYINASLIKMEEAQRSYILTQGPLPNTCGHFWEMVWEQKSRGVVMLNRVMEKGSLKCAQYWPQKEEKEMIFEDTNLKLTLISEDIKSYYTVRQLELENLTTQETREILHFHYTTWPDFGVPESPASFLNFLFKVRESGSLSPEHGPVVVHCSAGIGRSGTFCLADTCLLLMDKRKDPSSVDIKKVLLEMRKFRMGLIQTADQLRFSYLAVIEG
Experimental: The enzymatic activities of the PTP1B catalytic domain were determined at 30 °C by monitoring the hydrolysis of pNPP.

[5] = system: Cryptococcus neoformans (ATCC 90113); experiment: Antifungal evaluation, IC50 against C. neoformans; assay type: cell-based; conditions: RPMI 1640; for IC50: Cryptococcus neoformans, ATCC90113, incubated 70–74 h at 35 °C
Experimental: as §2
Optical rotations were determined with a Perkin-Elmer 341 polarimeter with 1 mm cell. IR spectra were recorded on a Bruker vector 22 spectrometer with KBr pellets. The NMR experiments were conducted on Bruker AVANCE-600 and Bruker AMX-500 instruments. HRESIMS and ESIMS were obtained on a Q-Tof micro YA019 mass spectrometer. In antifungal evaluation, IC50 values were calculated on XLfit 4.2 software (IDBS: Alameda, CA, USA, 2005). Reversed-phase HPLC was performed on YMC-Pack Pro C18 RS (5 μm) columns with a Waters 1525/2998 liquid chromatograph. Column chromatographies were carried out on silica gel 60 (200–300 mesh; Yantai, China), Sephadex LH-20 (Amersham Biosciences). TLC was carried out using HSGF 254 plates and visualized by spraying with anisaldehyde-H2SO4 reagent.
as §3

[6] = Cytotoxicity MTT assay; assay type: cell-based, human; conditions: human, HeLa cells (cervical cancer), 48 h treatment, 1 to 100 μg/mL
Experimental: as §1

[7] = system: HeLa (cervical cancer); experiment: Cytotoxicity MTT assay; assay type: cell-based, human; conditions: 48 h treatment, 1 to 100 μg/mL
Experimental: as §1

[8] = system: Candida albicans (Y0109); experiment: Antifungal evaluation, MIC (NCCLS broth dilution); assay type: cell-based; conditions: 46 h at 35 °C, range 1.25–640 μg/mL
Experimental: as §2, §3

Row | SMILES | MIC [2] | MIC [3] | IC50 [5] | also measured
1 | CCCCC(C)CC(O)(C=C(CC)C(O)CC(=O)O)CC (centres unmarked) [Compound 3, Woodylide C] | 32 µg/mL (≈ 107 µM) | 32 µg/mL (≈ 107 µM) | 10.8 µg/mL (≈ 36.1 µM) | IC50 at 48 h ([1]; HCT-116 cells (colon cancer)): 9.4 µg/mL (≈ 31.3 µM); IC50 [4]: 15.6 µM
2 | OC(Cn1cncn1)(Cn1cncn1)c1ccc(F)cc1F [Fluconazole, reference compound] | 8 µg/mL (≈ 26.1 µM) | 2 µg/mL (≈ 6.53 µM) | – | –
3 | CCCCC(C)CC(O)(/C=C(/CC)[C@@H](O)CC(=O)OC)CC (some centres unmarked) [Compound 1, Woodylide A] | 32 µg/mL (≈ 102 µM) | 32 µg/mL (≈ 102 µM) | 3.67 µg/mL (≈ 11.7 µM) | IC50 at 48 h ([1]; A549 cells (lung carcinoma)): 37.8 µg/mL (≈ 120 µM); IC50 at 48 h ([1]; QGY-7703 cells (hepatocarcinoma)): 25.8 µg/mL (≈ 82 µM); IC50 at 48 h [6]: 11.2 µg/mL (≈ 35.6 µM); Cytotoxicity IC50 HeLa [7]: 11.22 µg/mL; MIC [8]: 32 µg/mL (≈ 102 µM)
4 | CCCCC(CC)CC(O)(/C=C(/CC)[C@@H](O)CC(=O)OC)CC (some centres unmarked) [Compound 2, Woodylide B] | – | – | – | Antifungal Activity C. neoformans, IC50 ([5]; incubated 70–74 h at 35 °C): inactive
5 | C[C@@H]1[C@H](O)[C@@H](C)/C=C/C=C/C=C/C=C/C=C/C=C/C=C/[C@H](O[C@@H]2O[C@H](C)[C@@H](O)[C@H](N)[C@@H]2O)C[C@@H]2O[C@](O)(C[C@@H](O)C[C@@H](O)[C@H](O)CC[C@@H](O)C[C@@H](O)CC(=O)O[C@H]1C)C[C@H](O)[C@H]2C(=O)O [Amphotericin B, reference compound] | – | – | 0.35 µg/mL (≈ 0.379 µM) | –
